{"source": "patent US20230106864A1", "about": "“COMPOSITIONS AND METHODS FOR THE TREATMENT OF INTRACELLULAR BACTERIAL INFECTIONS” (Endolytix Technology, Inc., priority 2020, published 2023)", "tested_on": "M. abscessus", "test": "Cell growth assay of M. abscessus with ABlα plus antibiotic, Fractional Inhibitory Concentration (FIC) index", "format": "cell-based, Mycobacterium abscessus", "details": "antibiotic in combination with ABlα; FIG. 5", "data": [{"smiles": "CO[C@@]1(NC(=O)Cc2cccs2)C(=O)N2C(C(=O)O)=C(COC(N)=O)CS[C@@H]21", "note": "[cefoxitin]", "values": [{"measurement": "effect on attenuation of M. abscessus growth by FIC index", "value": "synergistic"}]}, {"smiles": "NCC[C@H](O)C(=O)N[C@@H]1C[C@H](N)[C@@H](O[C@H]2O[C@H](CN)[C@@H](O)[C@H](O)[C@H]2O)[C@H](O)[C@H]1O[C@H]1O[C@H](CO)[C@@H](O)[C@H](N)[C@H]1O", "note": "[amikacin]", "values": [{"measurement": "effect on attenuation of M. abscessus growth by FIC index", "value": "synergistic"}]}, {"smiles": "C[C@@H](O)[C@H]1C(=O)N2C(C(=O)[O-])=C(SC3Cn4cnc[n+]4C3)[C@H](C)[C@H]12", "note": "(stereo partly drawn) [biapenem]", "values": [{"measurement": "effect on attenuation of M. abscessus growth by FIC index", "value": "synergistic"}]}]}
